Laboratory results: patent publication US20260224584A1 (priority 2023, published 2026)
Where a name gives a salt, the structure may show the parent alone.

system: Human WB (90%) CD69; assay: Human WB (90%) CD69; format: cell-based; conditions: read-out: Human WB (90%) CD69 IC50 (nM); human whole blood (90%), CD69 readout

SMILES	IC50 [nM]
CC(C)N1CCN(c2ccc(-c3cc(N4CCN(C(C)C)CC4)c4nc(-c5ccc(S(C)(=O)=O)cc5)n(C)c4c3)cc2)CC1 [Example 1, 4-(4-isopropylpiperazin-1-yl)-6-(4-(4-isopropylpiperazin-1-yl)phenyl)-1-methyl-2-(4-(methylsulfonyl)phenyl)-1H-benzo[d]imidazole]	77
CC(C)N1CCN(c2ccc(-c3cc(N(C)CCN(C)C)c4nc(-c5ccc(S(C)(=O)=O)cc5)n(C)c4c3)cc2)CC1 [Example 2, N1-(6-(4-(4-isopropylpiperazin-1-yl)phenyl)-1-methyl-2-(4-(methylsulfonyl)phenyl)-1H-benzo[d]imidazol-4-yl)-N^1,N^2,N^2-trimethylethane-1,2-diamine]	199
CC(C)N1CCN(c2ccc(-c3cc(NCCN4CCCC4)c4nc(-c5ccc(S(C)(=O)=O)cc5)n(C)c4c3)cc2)CC1 [Example 3, 6-(4-(4-isopropylpiperazin-1-yl)phenyl)-1-methyl-2-(4-(methylsulfonyl)phenyl)-N-(2-(pyrrolidin-1-yl)ethyl)-1H-benzo[d]imidazol-4-amine]	87
Cc1nc2c(NCCN3CCOCC3)cc(-c3ccc(N4CCN(C(C)C)CC4)cc3)cc2n1C [Example 4, 6-(4-(4-isopropylpiperazin-1-yl)phenyl)-1,2-dimethyl-N-(2-morpholinoethyl)-1H-benzo[d]imidazol-4-amine]	106
COc1ccc(-c2nc3c(NCCN4CCOCC4)cc(-c4ccc(N5CCN(C(C)C)CC5)cc4)cc3n2C)cc1OC [Example 5, 2-(3,4-dimethoxyphenyl)-6-(4-(4-isopropylpiperazin-1-yl)phenyl)-1-methyl-N-(2-morpholinoethyl)-1H-benzo[d]imidazol-4-amine]	94
Cc1cc(C)nc(Nc2cc(-c3ccc(N4CCN(C(C)C)CC4)cc3)cc3c2nc(C)n3C)c1 [Example 6, N-(4,6-dimethylpyridin-2-yl)-6-(4-(4-isopropylpiperazin-1-yl)phenyl)-1,2-dimethyl-1H-benzo[d]imidazol-4-amine]	25
Cc1nc2c(NCCN3CCC(F)(F)CC3)cc(-c3ccc(N4CCN(C(C)C)CC4)cc3)cc2n1C [Example 7, N-(2-(4,4-difluoropiperidin-1-yl)ethyl)-6-(4-(4-isopropylpiperazin-1-yl)phenyl)-1,2-dimethyl-1H-benzo[d]imidazol-4-amine]	923
COc1cccc(CCNc2cc(-c3ccc(N4CCN(C(C)C)CC4)cc3)cc3c2nc(C)n3C)c1OC [Example 8, N-(2,3-dimethoxyphenethyl)-6-(4-(4-isopropylpiperazin-1-yl)phenyl)-1,2-dimethyl-1H-benzo[d]imidazol-4-amine, TFA]	1560
Cc1nc2c(NC3CCS(=O)(=O)CC3)cc(-c3ccc(N4CCN(C(C)C)CC4)cc3)cc2n1C [Example 9, 4-((6-(4-(4-isopropylpiperazin-1-yl)phenyl)-1,2-dimethyl-1H-benzo[d]imidazol-4-yl)amino)tetrahydro-2H-thiopyran 1,1-dioxide]	1120
Cc1nc2c(NCCc3ccc(S(C)(=O)=O)cc3)cc(-c3ccc(N4CCN(C(C)C)CC4)cc3)cc2n1C [Example 10, 6-(4-(4-isopropylpiperazin-1-yl)phenyl)-1,2-dimethyl-N-(4-(methylsulfonyl)phenethyl)-1H-benzo[d]imidazol-4-amine]	813
Cc1nc2c(NCc3ccc(S(C)(=O)=O)cc3)cc(-c3ccc(N4CCN(C(C)C)CC4)cc3)cc2n1C [Example 11, 6-(4-(4-isopropylpiperazin-1-yl)phenyl)-1,2-dimethyl-N-(4-(methylsulfonyl)benzyl)-1H-benzo[d]imidazol-4-amine]	918
Cc1nc2c(NCc3cccc(S(C)(=O)=O)c3)cc(-c3ccc(N4CCN(C(C)C)CC4)cc3)cc2n1C [Example 12, 6-(4-(4-isopropylpiperazin-1-yl)phenyl)-1,2-dimethyl-N-(3-(methylsulfonyl)benzyl)-1H-benzo[d]imidazol-4-amine]	971
Cc1nc2c(NC3CCN(S(C)(=O)=O)CC3)cc(-c3ccc(N4CCN(C(C)C)CC4)cc3)cc2n1C [Example 13, 6-(4-(4-isopropylpiperazin-1-yl)phenyl)-1,2-dimethyl-N-(1-(methylsulfonyl)piperidin-4-yl)-1H-benzo[d]imidazol-4-amine]	1220
Cc1nc2c(NCc3ccc(CN4CCOCC4)cc3)cc(-c3ccc(N4CCN(C(C)C)CC4)cc3)cc2n1C [Example 14, 6-(4-(4-isopropylpiperazin-1-yl)phenyl)-1,2-dimethyl-N-(4-(morpholinomethyl)benzyl)-1H-benzo[d]imidazol-4-amine]	31
Cc1ccc(Nc2cc(-c3ccc(N4CCN(C(C)C)CC4)cc3)cc3c2nc(C)n3C)cn1 [Example 15, 6-(4-(4-isopropylpiperazin-1-yl)phenyl)-1,2-dimethyl-N-(6-methylpyridin-3-yl)-1H-benzo[d]imidazol-4-amine]	526
Cc1nc2c(Nc3ccc(N4CCOCC4)cn3)cc(-c3ccc(N4CCN(C(C)C)CC4)cc3)cc2n1C [Example 16, 6-(4-(4-isopropylpiperazin-1-yl)phenyl)-1,2-dimethyl-N-(5-morpholinopyridin-2-yl)-1H-benzo[d]imidazol-4-amine]	207

SMILES	IC50 [nM]
Cc1nc2c(Nc3ccc(N4CCOCC4)nn3)cc(-c3ccc(N4CCN(C(C)C)CC4)cc3)cc2n1C [Example 17, 6-(4-(4-isopropylpiperazin-1-yl)phenyl)-1,2-dimethyl-N-(6-morpholinopyridazin-3-yl)-1H-benzo[d]imidazol-4-amine, TFA]	137
Cc1nc2c(Nc3ccc(N4CCOCC4)nc3)cc(-c3ccc(N4CCN(C(C)C)CC4)cc3)cc2n1C [Example 18, 6-(4-(4-isopropylpiperazin-1-yl)phenyl)-1,2-dimethyl-N-(6-morpholinopyridin-3-yl)-1H-benzo[d]imidazol-4-amine]	728
Cc1cc(Nc2cc(-c3ccc(N4CCN(C(C)C)CC4)cc3)cc3c2nc(C)n3C)cnc1C [Example 19, N-(5,6-dimethylpyridin-3-yl)-6-(4-(4-isopropylpiperazin-1-yl)phenyl)-1,2-dimethyl-1H-benzo[d]imidazol-4-amine]	452
Cc1nc2c(Nc3cnccn3)cc(-c3ccc(N4CCN(C(C)C)CC4)cc3)cc2n1C [Example 20, 6-(4-(4-isopropylpiperazin-1-yl)phenyl)-1,2-dimethyl-N-(pyrazin-2-yl)-1H-benzo[d]imidazol-4-amine]	1270
Cc1nc2c(Nc3ncccn3)cc(-c3ccc(N4CCN(C(C)C)CC4)cc3)cc2n1C [Example 21, 6-(4-(4-isopropylpiperazin-1-yl)phenyl)-1,2-dimethyl-N-(pyrimidin-2-yl)-1H-benzo[d]imidazol-4-amine]	1640
Cc1ccc(Nc2cc(-c3ccc(N4CCN(C(C)C)CC4)cc3)cc3c2nc(C)n3C)nc1 [Example 22, 6-(4-(4-isopropylpiperazin-1-yl)phenyl)-1,2-dimethyl-N-(5-methylpyridin-2-yl)-1H-benzo[d]imidazol-4-amine]	762
COc1ccnc(Nc2cc(-c3ccc(N4CCN(C(C)C)CC4)cc3)cc3c2nc(C)n3C)c1 [Example 23, 6-(4-(4-isopropylpiperazin-1-yl)phenyl)-N-(4-methoxypyridin-2-yl)-1,2-dimethyl-1H-benzo[d]imidazol-4-amine, TFA]	370
Cc1ccc(Nc2cc(-c3ccc(N4CCN(C(C)C)CC4)cc3)cc3c2nc(C)n3C)nn1 [Example 24, 6-(4-(4-isopropylpiperazin-1-yl)phenyl)-1,2-dimethyl-N-(6-methylpyridazin-3-yl)-1H-benzo[d]imidazol-4-amine]	600
CC(C)c1nc2c(NCCN3CCOCC3)cc(-c3ccc(N4CCN(C(C)C)CC4)cc3)cc2n1C [Example 25, 2-isopropyl-6-(4-(4-isopropylpiperazin-1-yl)phenyl)-1-methyl-N-(2-morpholinoethyl)-1H-benzo[d]imidazol-4-amine, 2 TFA]	530
Cc1cc(C)nc(Nc2cc(-c3ccc(N4CCN(C(C)C)CC4)cc3)cc3c2nc(C(C)C)n3C)c1 [Example 26, N-(4,6-dimethylpyridin-2-yl)-2-isopropyl-6-(4-(4-isopropylpiperazin-1-yl)phenyl)-1-methyl-1H-benzo[d]imidazol-4-amine]	578
Cc1cc(C)nc(Nc2cc(-c3ccc(N4CCN(C(C)C)CC4)cc3)cc3c2nc(C2CCN(S(C)(=O)=O)CC2)n3C)c1 [Example 27, N-(4,6-dimethylpyridin-2-yl)-6-(4-(4-isopropylpiperazin-1-yl)phenyl)-1-methyl-2-(1-(methylsulfonyl)piperidin-4-yl)-1H-benzo[d]imidazol-4-amine]	284
CC(C)N1CCN(c2ccc(-c3cc(NCCN4CCN(S(C)(=O)=O)CC4)c4nc(-c5ccc(S(C)(=O)=O)cc5)n(C)c4c3)cc2)CC1 [Example 28, 6-(4-(4-isopropylpiperazin-1-yl)phenyl)-1-methyl-2-(4-(methylsulfonyl)phenyl)-N-(2-(4-(methylsulfonyl)piperazin-1-yl)ethyl)-1H-benzo[d]imidazol-4-amine, 2 TFA]	807
Cc1cc(C)nc(Nc2cc(-c3ccc(N4CCN(C(C)C)CC4)cc3)cc3c2nc(-c2ccc(S(C)(=O)=O)cc2)n3C)c1 [Example 29, N-(4,6-dimethylpyridin-2-yl)-6-(4-(4-isopropylpiperazin-1-yl)phenyl)-1-methyl-2-(4-(methylsulfonyl)phenyl)-1H-benzo[d]imidazol-4-amine]	340
CC(C)N1CCN(c2ccc(-c3cc(NCCN4CCOCC4)c4nc(C5CCN(S(C)(=O)=O)CC5)n(C)c4c3)cc2)CC1 [Example 30, 6-(4-(4-isopropylpiperazin-1-yl)phenyl)-1-methyl-2-(1-(methylsulfonyl)piperidin-4-yl)-N-(2-morpholinoethyl)-1H-benzo[d]imidazol-4-amine]	374
CC(C)N1CCN(c2ccc(-c3cc(NCCN4CCOCC4)c4nc(C5CC5)n(C)c4c3)cc2)CC1 [Example 31, 2-cyclopropyl-6-(4-(4-isopropylpiperazin-1-yl)phenyl)-1-methyl-N-(2-morpholinoethyl)-1H-benzo[d]imidazol-4-amine, 2 TFA]	302
